Data taken from ChEMBL document CHEMBL1201862, “PubChem BioAssay data set” (2004).
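Protocol summary: plate cells (96-well), add compound at 5 concentrations, incubate 48 h, interpolate endpoints linearly. Abbreviation: GI50, concentration required for 50% inhibition of growth.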 Calls of active or inactive are those of the source. No stated cut-off is given here; in the data, active = GI50 up to about 1.1 µM and inactive = higher.

Assays:
Assay in all cases: DTP human tumour cell line panel, 48 h
[1] = test system: SNB-19
[2] = test system: BT-549
[3] = test system: OVCAR-8
[4] = test system: UACC-62
[5] = test system: CAKI-1
[6] = test system: SK-OV-3
[7] = test system: RXF 393
[8] = test system: A498
[9] = test system: HT-29
[10] = test system: OVCAR-3
[11] = test system: KM-20L2
[12] = test system: NCI/ADR-RES
[13] = test system: NCI-H460
[14] = test system: EKVX
[15] = test system: MCF7
[16] = test system: HOP-62
[17] = test system: SN12C
[18] = test system: HL-60
[19] = test system: SR
[20] = test system: Malme-3M

Row | Compound | GI50 [1] | GI50 [2] | GI50 [3] | GI50 [4] | GI50 [5] | GI50 [6] | GI50 [7] | GI50 [8] | GI50 [9] | GI50 [10] | GI50 [11] | GI50 [12] | GI50 [13] | GI50 [14] | GI50 [15] | GI50 [16] | GI50 [17] | GI50 [18] | GI50 [19] | GI50 [20]
1 | Cc1c(N)nc(C(CC(N)=O)NCC(N)C(N)=O)nc1C(=O)NC(C(=O)NC(C)C(O)C(C)C(=O)NC(C(=O)NCCc1nc(-c2nc(C(=O)NCCCNC(C)c3ccccc3)cs2)cs1)C(C)O)C(OC1OC(CO)C(O)C(O)C1OC1OC(CO)C(O)C(OC(N)=O)C1O)c1c[nH]cn1 (stereo not given) | 8390 nM (inactive) | 18200 nM (inactive) | 5110 nM (inactive) | 706 nM (active) | 25.8 nM (active) | 10200 nM (inactive) | 156 nM (active) | 1690 nM (inactive) | 21100 nM (inactive) | 8050 nM (inactive) | 40400 nM (inactive) | 1570 nM (inactive) | 48.2 nM (active) | 47100 nM (inactive) | 4400 nM (inactive) | 99.8 nM (active) | 2070 nM (inactive) | 7590 nM (inactive) | 2300 nM (inactive) | 1420 nM (inactive)
2 | O=C1C=CC(=O)c2c(O)ccc(O)c21 [NAPHTHAZALIN] | 8410 nM (inactive) | 2040 nM (inactive) | 910 nM (active) | 1480 nM (inactive) | 1270 nM (inactive) | 12700 nM (inactive) | 1030 nM (active) | 2960 nM (inactive) | 2170 nM (inactive) | 2090 nM (inactive) | 1840 nM (inactive) | 1920 nM (inactive) | 2470 nM (inactive) | 2750 nM (inactive) | 2320 nM (inactive) | 9750 nM (inactive) | 1330 nM (inactive) | 292 nM (active) | 222 nM (active) | 1180 nM (inactive)
3 | Cc1c(N)nc([C@H](CC(N)=O)NC[C@H](N)C(N)=O)nc1C(=O)N[C@H](C(=O)N[C@H](C)[C@@H](O)[C@H](C)C(=O)N[C@H](C(=O)NCCc1nc(-c2nc(C(=O)NCCC[S+](C)C)cs2)cs1)[C@@H](C)O)C(OC1OC(CO)C(O)C(O)C1OC1OC(CO)C(O)C(OC(N)=O)C1O)c1c[nH]cn1 (stereo not given in full) | 3960 nM (inactive) | 10200 nM (inactive) | 3260 nM (inactive) | 451 nM (active) | 37.9 nM (active) | 6460 nM (inactive) | 236 nM (active) | 3240 nM (inactive) | 14100 nM (inactive) | 4670 nM (inactive) | 19900 nM (inactive) | 904 nM (active) | 64.4 nM (active) | 17800 nM (inactive) | 2450 nM (inactive) | 83.8 nM (active) | 984 nM (active) | 5730 nM (inactive) | 109 nM (active) | 356 nM (active)
4 | COc1cc2c[n+](C)c3c4cc5c(cc4ccc3c2cc1OC)OCO5 [NITIDINE CHLORIDE] | 698 nM (active) | 6500 nM (inactive) | 1810 nM (inactive) | 1250 nM (inactive) | 2370 nM (inactive) | 877 nM (active) | 12400 nM (inactive) | 1090 nM (active) | 1560 nM (inactive) | 2240 nM (inactive) | 608 nM (active) | 27000 nM (inactive) | 1730 nM (inactive) | 1700 nM (inactive) | 1140 nM (inactive) | 2180 nM (inactive) | 447 nM (active) | 4250 nM (inactive) | 839 nM (active) | 14500 nM (inactive)
